Experimental findings from publication PMC9253268 (Frontiers in Immunology, 2022) are described below.

Read-outs that look alike come from different tables or passages of the source.

The nature of series [1]: Chemical profiling of BHGZD in sera (UFLC-Q-TOF-MS/MS). To be noted: 30 min after the treatment of BHGZD.
Excerpt: (§1) A rapid, sensitive, and reliable method by the UFLC-Q-TOF-MS/MS system was used to identify the chemical profiling of BHGZD as described in Supplementary Materials Section 9 ([30]). The reference standards of these compounds ( Supplementary Table S2 ) were purchased from Chengdu Must Bio-technology Co., Ltd. (Chengdu, China), the National Institute for the Control of Pharmaceutical and Biological Products (Beijing, China), and Chengdu DeSiTe Biological Technology Co., Ltd. (Chengdu, China).
(§2) Sciex, Forster City, USA) with electrospray ionization source (ESI). Kinetex C18 column
(§3) (Phenomenex, 3.0×150 mm, 2.6μm, 100Å) was used to perform chromatographic
(§4) separation with a flow rate of 0.3mL/min at 40℃. A linear gradient program with mobile
(§5) phase system including solvent A (deionized water with 0.1% formic acid, v/v) and solvent
(§6) B (methanol) was described in details: solvent B (5~95%) for 40min, isocratic eluted at
(§7) 95% B for 5min，95%~5% B (40-45min), followed a post-run of 2min to equilibrate the
(§8) The instrumental settings of Q-TOF-MS/MS were described in the previous study
(§9) (9).Samples were analyzed in both positive and negative ionization modes with scanning
(§10) mas-to-charge (m/z) range from 50 to 1500. Data was collected in information-dependent
(§11) acquisition (IDA) mode and analyzed by PeakView® 2.2 software (AB Sciex, Foster City,
(§12) Chemical identifications were based on reference standards and mass spectral
(§13) library (Natural Products HR-MS/MS Spectral Library, Version 1.0, AB Sciex, Forster City,
The conditions of series [2]: rat, in vivo.
Excerpt: as §1, §2, §3, §4, §5, §6, §7, §8, §9, §10, §11, §12, §13
Another series addresses T1, recombinant AKT1 protein (Homo sapiens, UniProt P31749).
T1 construct: His tag; purchased Abcam ab116412
The experiment in a line: Surface plasmon resonance (SPR) binding assay. To be noted: Biacore 8K, read-out: mean KD, MG–AKT. How it is done: To confirm the binding affinity of recombinant AKT1 protein and MG, SPR assay was performed with Biacore 8K (Biacore, Cytiva), and the K D value was calculated using the Biacore 8K evaluation software 2.0 (GE Healthcare). Detailed information on SPR assay is provided in Supplementary Materials Section 11 . […]
compound was greater than 9.0×106cm/s and 40% which indicated drug-like […]
Section 11 Surface plasmon resonance (SPR) assay
SPR binding assays were analyzed with Biacore 8K (Biacore, Cytiva). Materials and reagents used in SPR assays were purchased from Cytiva. The histidine-tagged AKT1 (Cat No. ab116412, Abcam, Cambridge, UK) was immobilized on the surface of Carboxymethylated (CM5) sensor chip through the standard amino coupling method. The carboxyl groups of the sensor surface were activated by injection of a solution containing 0.2M N-ethyl-N9-(3-dimethylaminopropyl) carbodiimide (EDC) and 0.05M N-hydroxysuccinimide (NHS), AKT1 in 10mM sodium acetate buffer was then injected at a flow rate of 10μL/min to couple to the sensor surface, and the remaining active sites in the […]
Sensor chips were primed twice with degassed physiological running buffer (PBS buffer). A reference flow cell was activated and blocked in the absence of AKT1. […]
On the technique in general: SPR reads the build-up and loss of mass on a sensor chip optically.

Series [3] is described as follows: In vivo pharmacokinetic analysis of MG and CA after oral BHGZD (UHPLC-QTRAP-MS/MS). Conditions: rat plasma after oral BHGZD 21.4 g/kg each day, n = 3. As to the method:
The pharmacokinetic parameters were calculated by Drug and Statistic software (Shanghai, China). Detailed information on the collection of blood samples and UHPLC-QTRAP-MS/MS conditions is provided in Supplementary Materials Section 13 . […]
Section 13 Pharmacokinetic analysis […]
administration of BHGZD, ultra-fast liquid chromatography coupled with triple quadrupole-linear ion trap composite mass spectrometry (UHPLC-QTRAP-MS/MS) system was […]
Bioanalytical Method Validation issued by Chinese Pharmacopoeia Commission in 2020.
The pharmacokinetic parameters were calculated by Drug and Statistic software […]
1) Collection of blood samples
Male Lewis rats (n=6, 6-8 weeks-old, 200±20g in weight) were purchased from Beijing Vital River Laboratory Animal Technology Co., Ltd. (SCCK 2016-0006, Beijing, China; n=3 per group, including normal control group and normal control+BHGZD treatment group).
Diet was prohibited for 12h before the experiment but water was freely available. Blood samples (~0.25mL) were collected from the retinal venous plexus into heparinized 1.5mL polythene tubes before administration and 0, 0.25, 0.5, 1, 2, 3, 4, 6, 8,12 and 24h after administration of BHGZD. The plasma samples were obtained after centrifuging at 12000rpm for 15min, and stored at -20℃ prior to analysis.
2) UHPLC-QTRAP-MS/MS conditions
Quantification analysis were performed on an ultra-high-performance liquid chromatography (Shimadzu Corp., Japan) tandem ion trap quadrupole QTRAP 6500 plus mass spectrometry (AB Sciex, USA). Chromatographic separation was conducted using a Poroshell 120 EC-C18 column (3.0×50mm, 2.7μm) at 40℃. The mobile phase was consisted of 0.1% formic acid–water (v/v, A) and methanol (B) and elution program were:
Mass spectrometry detector were conducted in negative mode and the detecting parameters were set as follows: curtain gas, 35 psi; collision gas, medium; ionspray voltage, 4500 V; temperature, 550℃; ion source gas 1 and 2, 55psi. Quantitative ion pairs were optimized for MG: m/z 421.2-301.1 (declustering potential: 63V, CE: 30eV) and for […]
Data acquisition and analysis

The test system of series [4] is RAW264.7 cells. Description: Cell viability, CCK-8 assay. Format: cell-based, mouse. To be noted: 0.21–6.74 ng/ml MG or 0.02–0.52 ng/ml CA treatment alone. As to the method:
Cell viability was analyzed with the cell counting kit-8 (CCK-8) assay kit (Beyotime Biotechnology, Shanghai, China) as described in Supplementary Materials Section 16 .
Section 16 Cell proliferation assay
Cell viability was analyzed with Cell Counting Kit-8 (CCK-8) assay kit (Beyotime Biotechnology, China). Raw264.7 cells were seeded into 96-well plate, and after […]
solution was added to each well. The absorbance was measured after 4h of incubation at […]
Section 17 Flow cytometry
To identify and quantify of pyroptosis population of Raw264.7 cells, FITC Apoptosis Detection kit I staining with both the Annexin V-fluorescein isothiocyanate and propidium iodide (PI, BD Biosciences, San Jose, CA, USA) was used in accordance with manufacturer's guidelines. Briefly, Raw264.7 cells was washed twice with cold PBS and then resuspended in 1×binding buffer at a concentration of 1x10^6 cells/mL. Then, 100µL of the solution (1x10^5 cells) was transferred to a 5 mL culture tube. Subsequently, 5µL of FITC Annexin V and 5µL PI were added into cultured tube, and vortexed and incubated for 15 min at room temperature in the dark. Finally, 400µL 1×binding buffer was added into each tube, and analyzed by flow cytometry (ACEA Bioscience, San Diego, CA, USA) and NovoExpress 1.4.1 software (ACEA Bioscience, San Diego, CA, USA) within 1h.
(In general: Formazan colour is commonly taken as a measure of viable cells.)

For series [5], the system named is RAW264.7 cells. The experiment in a line: LPS/ATP-induced pyroptosis in RAW264.7 cells (flow cytometry, FAM-FLICA, immunofluorescence, Western blotting, ELISA). Format: cell-based, mouse. (In flow cytometry, cells or beads pass a laser one at a time.)
Excerpt: (§14) Mouse macrophage cell line (RAW264.7 cells, Bio-Swamp, Wuhan, China) and fibroblast-like synoviocytes in patients with RA (MH7A cells, Riken cell bank, Ibaraki, Japan) at passage numbers four to eight were used in the current experiment validations.
(§15) The concentration of DMSO was less than 1‰ of the solution for the in vitro experiment.
Fluorescence images were visualized and photographed with a confocal microscope (Zeiss LSM 880, Carl Zeiss, Jena, Germany).
The images were visualized and photographed with a confocal microscope (Zeiss LSM 880, Carl Zeiss, Jena, Germany) or an inverted fluorescence microscope (MF53, MSHOT, Guangzhou, China).
(§16) To evaluate the therapeutic effects of two BACs from BHGZD on the regulation of the “immune-inflammation” system, the levels of cytokines, proteins, and LDH release in RAW264.7 and MH7A cellular supernatant, as well as the sera of AIA-M rats were determined using enzyme-linked immunosorbent assay (ELISA) to assess the integrity of membranes in accordance with the manufacturer’s guidelines.
Raw264.7 cells were maintained in DMEM (Hyclone, Logan, UT, USA), supplemented
100μg/mL streptomycin and 2mM L-glutamine (TBD, Tianjin, China) in a humidified 5%
CO2 incubator at the temperature of 37℃. The Raw264.7 cells at passage numbers four
to eight were used in the current experiment validations.
MH7A cells were cultured in sterile synoviocyte growth medium (Cell Applicatio ns, Inc.,
L-glutamine (TBD, Tianjin, China) in a humidified 5% CO2 incubator at the temperature of
37℃. MH7A at passage numbers four to eight were used in the current experiment
(§17) To induce a conventional NLRP3 inflammasome activation, Raw264.7cells was induced
(§18) with 0.2μg/mL lipopolysaccharide [LPS, Escherichia coli (O111:B4), Sigma-Aldrich, St
(§19) Louis, MO, USA] for 4h, followed with a 3mM ATP adenosine triphosphate (ATP disodium
(§20) salt hydrate, Sigma-Aldrich, St Louis, MO, USA) for 1h of incubation at 37℃ with 5% CO2
(§21) For MH7A cells LPS/ATP-induced pyrotosis, MH7A cells were induced with 1μg/mL LPS
(§22) for 6h, followed with a 3mM ATP for 1h of incubation at 37℃ with 5% CO2 (11).
Another series has as its system MH7A cells. The experiment in a line: LPS/ATP-induced pyroptosis in MH7A cells (TUNEL, immunofluorescence, Western blotting, ELISA). Format: cell-based, human.
[6] abbreviates: LPS/ATP-induced RAW264.7 cells, all p < 0.05.
[7] abbreviates: LPS/ATP-induced, BHGZD 28.54 μg/ml, MG 1.69 ng/ml, CA 0.13 ng/ml, 24 h.
The mark [8] stands for this setting: LPS/ATP-induced MH7A cells, all p < 0.05.

T1 sequence (P31749 whole entry): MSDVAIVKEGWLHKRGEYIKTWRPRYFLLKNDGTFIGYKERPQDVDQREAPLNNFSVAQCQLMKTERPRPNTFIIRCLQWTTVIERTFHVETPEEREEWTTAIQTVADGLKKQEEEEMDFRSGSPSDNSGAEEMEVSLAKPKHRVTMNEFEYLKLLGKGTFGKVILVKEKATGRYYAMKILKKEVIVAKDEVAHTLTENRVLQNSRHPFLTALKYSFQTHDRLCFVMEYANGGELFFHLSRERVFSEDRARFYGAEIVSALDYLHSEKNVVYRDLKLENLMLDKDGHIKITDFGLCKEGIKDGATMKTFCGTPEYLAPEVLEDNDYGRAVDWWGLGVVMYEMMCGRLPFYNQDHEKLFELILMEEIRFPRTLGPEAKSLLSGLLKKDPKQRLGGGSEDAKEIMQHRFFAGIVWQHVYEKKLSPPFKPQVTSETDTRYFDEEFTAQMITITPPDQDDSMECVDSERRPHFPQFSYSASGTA
Excerpt for MH7A cells: as §14
The conventional NLRP3 inflammasome activation cellular model was induced by lipopolysaccharide [LPS, Escherichia coli (O111:B4), Sigma-Aldrich, St Louis, MO, USA] and adenosine triphosphate (ATP disodium salt hydrate, Sigma-Aldrich, St Louis, MO, USA) as in our previous study ([22]) ( Supplementary Materials Section 15 ).
as §15
The occurrence of pyroptosis in both MH7A cells and synovium tissues in AIA-M rats was determined by in situ TUNEL staining (TUNEL Andy Fluor™ 594 Apoptosis Detection Kit, ABP Biosciences, Wuhan, China) in accordance with the manufacturer’s protocol. Fluorescence images were visualized and photographed with inverted fluorescence microscopes (MF53, MSHOT, Guangzhou, China; Olympus, BX51, Tokyo, Japan).
Double fluorescence staining was performed as described previously ([22]) ( Supplementary Materials Section 20 ). The images were visualized and photographed with a confocal microscope (Zeiss LSM 880, Carl Zeiss, Jena, Germany) or an inverted fluorescence microscope (MF53, MSHOT, Guangzhou, China).
To evaluate the regulation of BHGZD on the candidate targets in arthritic tissue samples, as well as RAW264.7 and MH7A cells, Western blotting analysis was carried out following the protocol as in our previous studies ([21], [24], [29]). TLR4, phospho-PI3K (p-PI3K), PI3K, p-AKT, p-NFκB-p65, NFκB-p65, NLRP3, ASC, caspase-1, the N-terminal domain of GSDMD (GSDMD-NT), and IL-1β antibodies were used as shown in Supplementary Table S3 . GAPDH (GAPDH Mouse monoclonal antibody, Abcam, Cambridge, UK) and β-actin (Anti-beta-Actin/β-Actin Antibody, Boster Biological Technology, California, USA) were used as loading controls for arthritic tissue samples and cultured cells, respectively.
as §16, §17, §18, §19, §20, §21, §22

With anemarrhensaponin I, in series [1], the “quantitative detection in sera after the treatment of BHGZD” value (“quantitative detection in sera” below) is recorded as “detected”.

As to `COc1ccc(-c2coc3cc(O)ccc3c2=O)cc1` [formononetin], the “quantitative detection in sera” value in series [1] is reported as “detected”.

Turning to `C[C@@H](CC[C@@]1(O)O[C@H]2C[C@H]3[C@@H]4CC[C@@H]5C[C@@H](O[C@@H]6O[C@H](CO)[C@H](O)[C@H](O)[C@H]6O[C@@H]6O[C@H](CO)[C@@H](O)[C@H](O)[C@H]6O)CC[C@]5(C)[C@H]4CC[C@]3(C)[C@H]2[C@@H]1C)CO[C@@H]1O[C@H](CO)[C@@H](O)[C@H](O)[C@H]1O` [timosaponin B II], the “quantitative detection in sera” value in series [1] was “detected”.

Regarding `O=c1cc(-c2ccc(O)cc2)oc2c([C@@H]3O[C@H](CO)[C@@H](O)[C@H](O)[C@H]3O)c(O)c([C@@H]3OC[C@H](O)[C@H](O)[C@H]3O)c(O)c12` [isoschaftoside], the “quantitative detection in sera” value in series [1] is given as “detected”.

On to `CC1(C)[C@@H](O[C@H]2O[C@H](C(=O)O)[C@@H](O)[C@H](O)[C@H]2O[C@@H]2O[C@H](C(=O)O)[C@@H](O)[C@H](O)[C@H]2O)CC[C@]2(C)[C@H]3C(=O)C=C4[C@@H]5C[C@@](C)(C(=O)O)CC[C@]5(C)CC[C@@]4(C)[C@]3(C)CC[C@@H]12` [glycyrrhizic acid], for which the “quantitative detection in sera” value in series [1] was “detected”.

As for `COc1cc2c(=O)c3c(O)c([C@@H]4O[C@H](CO)[C@@H](O)[C@H](O)[C@H]4O)c(O)cc3oc2cc1O` [7-O-methyl mangiferin], the “quantitative detection in sera” value in series [2] is reported as “detected”.

Take `O=c1c2cc(O)c(O)cc2oc2cc(O)c([C@@H]3O[C@H](CO)[C@@H](O)[C@H](O)[C@H]3O)c(O)c12` [MG, mangiferin]: at recombinant AKT1 protein, the Kd (in general, the free concentration of one partner at which half of the binding sites on the other are occupied at equilibrium, for simple one-to-one binding) was determined as 38.3 µM. Besides, the Cmax (commonly the maximum level reached in the sampled fluid or tissue) in series [3] (male, Lewis, rat, plasma, po, 21.4 g/kg, non-compartment model, read-out: Cmax) was 132 ng/mL; in series [3] (non-compartment model, listed as Mangiferin (MG)), 132.07 ± 44.67 ng/mL. In addition, the AUC(0-t) (usually exposure summed from dosing to a finite time, without extrapolation to infinity) in series [3] (male, Lewis, 0-24 h) was 578 ± 183 ng·h/mL. Besides, the half-life in series [3] (male, Lewis, apparent elimination half-life, read-out: t1/2z (converted)) was 1.26 ± 0.23 h. Further, the AUC(0-inf) – broadly, total exposure, with the tail of the curve extrapolated – in series [3] (male, Lewis) was determined as 579 ± 182 ng·h/mL. Also, the MRT last in series [3] (male, Lewis, read-out: MRT(0-t)) is 4.23 ± 0.3 h. Also, the MRT inf in series [3] (male, Lewis, read-out: MRT(0-∞)) was 4.25 ± 0.28 h. Further, the Tmax (usually the time from dosing to the highest level) in series [3] (male, Lewis, non-compartment model) worked out at 4 h. The “cell viability (CCK8)” value in the series on RAW264.7 cells [4] was “no cell toxicity”. The GSDMD-NT entry with RAW264.7 cells [5] (LPS/ATP-induced RAW264.7 cells, Western blotting) was “decreased”; with MH7A cells (LPS/ATP-induced MH7A cells, Western blotting), “decreased”. In addition, the “expression levels of NLRP3, ASC, and caspase-1” value in the series with RAW264.7 cells [5] (setting [6]) and in the series on MH7A cells (setting [8]) was “reduced” throughout. The “levels of IL-1β, IL-18, and LDH release in the supernatant” value in the series with RAW264.7 cells [5] (setting [6]) and in the series with MH7A cells (setting [8]) was “reduced” each time. For the same compound, in the series on RAW264.7 cells [5] (LPS/ATP-induced, 1.69 ng/ml MG, 0.13 ng/ml CA, 24 h, inferior to BHGZD, all p < 0.05), the “PI positive cell rate” value is listed as “prominently reduced”. The “number of FLICA-positive RAW264.7 cells” value with RAW264.7 cells [5] (setting [7]) is recorded as “reduced”. In addition, in the series with RAW264.7 cells [5] (RAW264.7 and MH7A cells, all p < 0.05), the “inhibition on cell pyroptosis induced by LPS/ATP, alone versus combination” value is listed as “weaker than that in the two-BAC combination treatment group”. Further, the “number of TUNEL-positive MH7A cells” value in the series with MH7A cells (setting [7]) is “reduced”. In addition, the “quantitative detection in sera” value in series [1] is given as “detected”.

`O=c1cc(-c2ccc(O)cc2)oc2cc(O)c([C@@H]3O[C@H](CO)[C@@H](O)[C@H](O)[C@H]3O)c(O)c12` [isovitexin]: the “quantitative detection in sera” value in series [1] is listed as “detected”.

For `O=C(/C=C/c1ccc(O[C@@H]2O[C@H](CO)[C@@H](O)[C@H](O)[C@H]2O)cc1)c1ccc(O)cc1O` [isoliquiritin], the “quantitative detection in sera” value in series [1] is “detected”.

Take `O=C1C[C@@H](c2ccc(O)cc2)Oc2cc(O)ccc21` [liquiritigenin]: the “quantitative detection in sera” value in series [1] is “detected”.

For the compound `O=c1cc(-c2ccc(O)cc2)oc2c([C@@H]3O[C@H](CO)[C@@H](O)[C@H](O)[C@H]3O)c(O)cc(O)c12` [vitexin], the “quantitative detection in sera” value in series [1] is “detected”.

For the compound `O=c1c2cc(O[C@@H]3O[C@H](CO)[C@@H](O)[C@H](O)[C@H]3O)c(O)cc2oc2cc(O)c([C@@H]3O[C@H](CO)[C@@H](O)[C@H](O)[C@H]3O)c(O)c12` [neomangiferin], the “quantitative detection in sera” value in series [1] is “detected”.
